Columns and labels:
B. subtilis 168 [1] = experiment: fitness (endpoint OD595 vs no drug) (fraction); higher = more growth
How it was run: (§1)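 Fitness was defined as the optical density at the transition into stationary phase relative to the robust mean of no-drug control wells. Values were capped at 1. Cultures were started at OD595 0.01 in 384-well plates (30 µl, or 55 µl for S. pneumoniae) in TSB, LB Lennox or CY at 37 °C. OD595 was recorded every 30 min over 14 h, with the first reading subtracted as background.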

S. aureus DSM 20231 [2] = experiment: as above
How it was run: as §1

S. aureus Newman [3] = experiment: as above
How it was run: as §1

S. pneumoniae D39V [4] = experiment: as above
How it was run: as §1

B. subtilis 168 [5] = experiment: Bliss interaction score (quartile over a dose matrix) (fitness difference); higher = more antagonism (negative = synergy)
How it was run: (§2)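 OD595 was read at entry into stationary phase and expressed relative to the robust mean of the no-drug wells on the same plate, capped at 1. The resulting ratio is the fitness value. The Bliss score, observed fitness minus product-based expected fitness with single-drug fitness inferred from combinations, is summarised by quartiles over technical, biological and donor/recipient replicates.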

S. aureus DSM 20231 [6] = experiment: as above
How it was run: as §2

S. aureus Newman [7] = experiment: as above
How it was run: as §2

S. pneumoniae D39V [8] = experiment: as above
How it was run: as §2
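Throughout, for Bliss interaction score (quartile over a dose matrix): first quartile when negative (synergy) and third quartile when positive (antagonism).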

CO/N=C(\C(=O)N[C@@H]1C(=O)N2C(C(=O)O)=C(COC(C)=O)CS[C@H]12)c1csc(N)n1 [Cefotaxime] + COc1cccc2c1C(=O)c1c(O)c3c(c(O)c1C2=O)C[C@@](O)(C(=O)CO)C[C@@H]3O[C@H]1C[C@H](N)[C@H](O)[C@H](C)O1 [Doxorubicin]
fitness, one replicate
Settings | first compound 0.00775 µg/mL | first compound 0.0155 µg/mL | first compound 0.031 µg/mL | first compound 0.0625 µg/mL | first compound 0.125 µg/mL | first compound 0.25 µg/mL | first compound 0.625 µg/mL | first compound 1.25 µg/mL | first compound 2.5 µg/mL
B. subtilis 168 [1], partner 0.625 µg/mL | 0.844 | 0.659 | 0.476 | 0.382 | 0.227 | 0.187 | – | – | –
B. subtilis 168 [1], partner 1.25 µg/mL | 0.771 | 0.571 | 0.371 | 0.337 | 0.232 | 0.196 | – | – | –
B. subtilis 168 [1], partner 2.5 µg/mL | 0.35 | 0.0312 | 0.0055 | 0.0527 | 0.048 | 0.0308 | – | – | –
S. aureus Newman [3], partner 0.625 µg/mL | – | – | – | – | – | – | 0.0853 | 0.0304 | 0.0624
S. aureus Newman [3], partner 1.25 µg/mL | – | – | – | – | – | – | 0.0701 | 0.0126 | 0.0183
S. aureus Newman [3], partner 2.5 µg/mL | – | – | – | – | – | – | 0.0451 | 0 | 0.0123

Settings | fitness
B. subtilis 168 [1], first compound 0.5 µg/mL, partner 0.625 µg/mL | 0.183
B. subtilis 168 [1], first compound 0.5 µg/mL, partner 1.25 µg/mL | 0.16
B. subtilis 168 [1], first compound 0.5 µg/mL, partner 2.5 µg/mL | 0.0662
B. subtilis 168 [1], first compound 1 µg/mL, partner 0.625 µg/mL | 0.106
B. subtilis 168 [1], first compound 1 µg/mL, partner 1.25 µg/mL | 0.0654
B. subtilis 168 [1], first compound 1 µg/mL, partner 2.5 µg/mL | 0.0366
B. subtilis 168 [1], first compound 2 µg/mL, partner 0.625 µg/mL | 0.0861
B. subtilis 168 [1], first compound 2 µg/mL, partner 1.25 µg/mL | 0.0715
B. subtilis 168 [1], first compound 2 µg/mL, partner 2.5 µg/mL | 0.0755
S. aureus DSM 20231 [2], first compound 0.039 µg/mL, partner 0.625 µg/mL | 0.717
S. aureus DSM 20231 [2], first compound 0.039 µg/mL, partner 1.25 µg/mL | 0.707
S. aureus DSM 20231 [2], first compound 0.039 µg/mL, partner 2.5 µg/mL | 0.633
S. aureus DSM 20231 [2], first compound 0.078 µg/mL, partner 0.625 µg/mL | 0.67
S. aureus DSM 20231 [2], first compound 0.078 µg/mL, partner 1.25 µg/mL | 0.67
S. aureus DSM 20231 [2], first compound 0.078 µg/mL, partner 2.5 µg/mL | 0.589
S. aureus DSM 20231 [2], first compound 0.156 µg/mL, partner 0.625 µg/mL | 0.602
S. aureus DSM 20231 [2], first compound 0.156 µg/mL, partner 1.25 µg/mL | 0.613
S. aureus DSM 20231 [2], first compound 0.156 µg/mL, partner 2.5 µg/mL | 0.583
S. aureus DSM 20231 [2], first compound 0.312 µg/mL, partner 0.625 µg/mL | 0.537
S. aureus DSM 20231 [2], first compound 0.312 µg/mL, partner 1.25 µg/mL | 0.61
S. aureus DSM 20231 [2], first compound 0.312 µg/mL, partner 2.5 µg/mL | 0.572
S. aureus Newman [3], first compound 0.078 µg/mL, partner 0.625 µg/mL | 0.613
S. aureus Newman [3], first compound 0.078 µg/mL, partner 1.25 µg/mL | 0.68
S. aureus Newman [3], first compound 0.078 µg/mL, partner 2.5 µg/mL | 0.663
S. aureus Newman [3], first compound 0.156 µg/mL, partner 0.625 µg/mL | 0.563
S. aureus Newman [3], first compound 0.156 µg/mL, partner 1.25 µg/mL | 0.592
S. aureus Newman [3], first compound 0.156 µg/mL, partner 2.5 µg/mL | 0.618
S. aureus Newman [3], first compound 0.312 µg/mL, partner 0.625 µg/mL | 0.458
S. aureus Newman [3], first compound 0.312 µg/mL, partner 1.25 µg/mL | 0.45
S. aureus Newman [3], first compound 0.312 µg/mL, partner 2.5 µg/mL | 0.408
S. pneumoniae D39V [4], first compound 0.0018 µg/mL, partner 0.25 µg/mL | 0.944
S. pneumoniae D39V [4], first compound 0.0018 µg/mL, partner 0.5 µg/mL | 0.963
S. pneumoniae D39V [4], first compound 0.0018 µg/mL, partner 1 µg/mL | 0.863
S. pneumoniae D39V [4], first compound 0.0035 µg/mL, partner 0.25 µg/mL | 0.929
S. pneumoniae D39V [4], first compound 0.0035 µg/mL, partner 0.5 µg/mL | 0.944
S. pneumoniae D39V [4], first compound 0.0035 µg/mL, partner 1 µg/mL | 0.831
S. pneumoniae D39V [4], first compound 0.007 µg/mL, partner 1 µg/mL | 0.731

Settings | Bliss interaction score
B. subtilis 168 [5] | -0.17
S. aureus DSM 20231 [6] | -0.086
S. aureus Newman [7] | 0.0946
S. pneumoniae D39V [8] | 0.0436

Source: the supplement of paper PMC10627819
